Columns and labels:
[1] = Inhibition of adipogenesis in mouse C3H10T1/2 cells assessed as lipid droplet formation at 20 uM by Oil red O staining relative to control; type: functional, C3H 10T1/2; design: scale not given: the % may be the effect or the level left
C3H 10T1/2 = assay: Induction of differentiation in mouse C3H10T1/2 cells assessed as increase […] by measuring ALP activity at 20 uM relative to control; type: functional

Row | Structure (SMILES) | Activity [1] [%] | fold change (FC) (C3H 10T1/2)
1 | O=[N+]([O-])c1ccc(O[C@@H]2O[C@H](CO)[C@@H](O)[C@H](O)[C@H]2O)cc1 | 17 | 
2 | Cc1cc([N+](=O)[O-])ccc1O[C@@H]1O[C@H](CO)[C@@H](O)[C@H](O)[C@H]1O | 17 | 
3 | COC(=O)c1ccc(O[C@@H]2O[C@H](CO)[C@@H](O)[C@H](O)[C@H]2O)cc1 | 17 | 
4 | COc1cc([C@@H]2OC[C@@H]3[C@H]2CO[C@H]3c2ccc(O[C@@H]3O[C@H](CO)[C@@H](O)[C@H](O)[C@H]3O)c(OC)c2)ccc1O |  | 1.3

— ChEMBL document CHEMBL4808237, “Ginkgonitroside, a new nitrophenyl glycoside and bioactive compounds from Ginkgo biloba leaves controlling adipocyte and osteoblast differentiation” (2021)
